Source: patent US7842802B2, “Vinorelbine derivatives” (priority 2003, dated 2010)
Where two headings read alike, the source gives them in different places.

Key:
[1] = system: HeLa S-3 human cervical carcinoma cell line; experiment: HeLa GI50 determination (SRB); assay type: cell-based; conditions: HeLa S-3, 2 days of treatment, SRB, read-out: HeLa Cells GI50
Method: Growth inhibition (GI50) values were measured on the human cervical carcinoma cell line, HeLa S-3, which were selected for growth on plastic. The HeLa cell assay was based on the description of Skehan et al., J. Natl. Cancer Inst., 82:1107-12 (1990), which is hereby incorporated by reference in its entirety. HeLa cells were plated at 2×10^4 cells/well in 96 well plates. One day later, a control plate was fixed by the addition of TCA to 5%. After five rinses with tap water, the plate was air-dried and stored at 4° C. Test compounds were added to the remaining plates at 10-fold dilutions. Two days later, all plates were fixed as described above. Cells were then stained by the addition of 100 μL per well of 0.4% sulforhodamine B (SRB) in 1% acetic acid for 30 min at 4° C. Wells were then quickly rinsed 5× with 1% acetic acid and allowed to air dry. The SRB was then solubilized by the addition of 100 μL per well of unbuffered 10 mM Tris base. Dye was quantified by measuring absorbance at 490 nm on a Molecular Devices microplate reader. Growth inhibition was calculated according to the following equation: GI=100×(T−T0)/(C−T0), where the optical density (OD) of the test well after 2 days of treatment was T, the OD of the wells in the control plate on day 0 was T0 and C was the OD of untreated wells. Plots of percent growth inhibition versus inhibitor concentration were used to determine the GI50.

[2] = system: HS 578T; experiment: NCI 60-cell line growth inhibition assay, HS 578T; assay type: cell-based, human; conditions: Breast
Excerpt: (§1) The following data in Table 4 summarize the growth inhibition properties of several compounds of the present invention against 60-human transformed cell lines.

[3] = system: MCF7; experiment: NCI 60-cell line growth inhibition assay, MCF7; assay type: cell-based, human; conditions: Breast
Excerpt: as §1

[4] = system: MDA-MB-231/ATCC; experiment: NCI 60-cell line growth inhibition assay, MDA-MB-231/ATCC; assay type: cell-based, human; conditions: Breast
Excerpt: as §1

[5] = system: NCI/ADR-RES; experiment: NCI 60-cell line growth inhibition assay, NCI/ADR-RES; assay type: cell-based, human; conditions: Breast
Excerpt: as §1

[6] = system: SF-295; experiment: NCI 60-cell line growth inhibition assay, SF-295; assay type: cell-based, human; conditions: CNS
Excerpt: as §1

[7] = system: SF-539; experiment: NCI 60-cell line growth inhibition assay, SF-539; assay type: cell-based, human; conditions: CNS
Excerpt: as §1

[8] = system: SNB-75; experiment: NCI 60-cell line growth inhibition assay, SNB-75; assay type: cell-based, human; conditions: CNS
Excerpt: as §1

[9] = system: U251; experiment: NCI 60-cell line growth inhibition assay, U251; assay type: cell-based, human
Excerpt: as §1

[10] = system: HCT-15; experiment: NCI 60-cell line growth inhibition assay, HCT-15; assay type: cell-based, human; conditions: Colon
Excerpt: as §1

[11] = system: HT29; experiment: NCI 60-cell line growth inhibition assay, HT29; assay type: cell-based, human
Excerpt: as §1

[12] = system: KM12; experiment: NCI 60-cell line growth inhibition assay, KM12; assay type: cell-based, human; conditions: Colon
Excerpt: as §1

[13] = system: SW-620; experiment: NCI 60-cell line growth inhibition assay, SW-620; assay type: cell-based, human; conditions: Colon
Excerpt: as §1

[14] = system: CCRF-CEM; experiment: NCI 60-cell line growth inhibition assay, CCRF-CEM; assay type: cell-based, human; conditions: Leukemia
Excerpt: as §1

[15] = system: HL-60(TB); experiment: NCI 60-cell line growth inhibition assay, HL-60(TB); assay type: cell-based, human; conditions: Leukemia
Excerpt: as §1

[16] = system: K-562; experiment: NCI 60-cell line growth inhibition assay, K-562; assay type: cell-based, human
Excerpt: as §1

[17] = system: RPMI-8226; experiment: NCI 60-cell line growth inhibition assay, RPMI-8226; assay type: cell-based, human
Excerpt: as §1

[18] = system: SR; experiment: NCI 60-cell line growth inhibition assay, SR; assay type: cell-based, human; conditions: Leukemia
Excerpt: as §1

[19] = system: LOX IMVI; experiment: NCI 60-cell line growth inhibition assay, LOX IMVI; assay type: cell-based, human; conditions: Melanoma
Excerpt: as §1

[20] = system: M14; experiment: NCI 60-cell line growth inhibition assay, M14; assay type: cell-based, human; conditions: Melanoma
Excerpt: as §1

[21] = system: MALME-3M; experiment: NCI 60-cell line growth inhibition assay, MALME-3M; assay type: cell-based, human; conditions: Melanoma
Excerpt: as §1

[22] = system: SK-MEL-2; experiment: NCI 60-cell line growth inhibition assay, SK-MEL-2; assay type: cell-based, human; conditions: Melanoma
Excerpt: as §1

[23] = system: UACC-257; experiment: NCI 60-cell line growth inhibition assay, UACC-257; assay type: cell-based, human; conditions: Melanoma
Excerpt: as §1

[24] = system: UACC-62; experiment: NCI 60-cell line growth inhibition assay, UACC-62; assay type: cell-based, human; conditions: Melanoma
Excerpt: as §1

[25] = system: A549/ATCC; experiment: NCI 60-cell line growth inhibition assay, A549/ATCC; assay type: cell-based, human; conditions: Non-Small Cell Lung
Excerpt: as §1

[26] = system: HOP-62; experiment: NCI 60-cell line growth inhibition assay, HOP-62; assay type: cell-based, human; conditions: Non-Small Cell Lung
Excerpt: as §1

[27] = system: HOP-92; experiment: NCI 60-cell line growth inhibition assay, HOP-92; assay type: cell-based, human; conditions: Non-Small Cell Lung
Excerpt: as §1

[28] = system: NCI-H226; experiment: NCI 60-cell line growth inhibition assay, NCI-H226; assay type: cell-based, human; conditions: Non-Small Cell Lung
Excerpt: as §1

[29] = system: NCI-H23; experiment: NCI 60-cell line growth inhibition assay, NCI-H23; assay type: cell-based, human; conditions: Non-Small Cell Lung
Excerpt: as §1

[30] = system: NCI-H460; experiment: NCI 60-cell line growth inhibition assay, NCI-H460; assay type: cell-based, human; conditions: Non-Small Cell Lung
Excerpt: as §1

[31] = system: NCI-H522; experiment: NCI 60-cell line growth inhibition assay, NCI-H522; assay type: cell-based, human; conditions: Non-Small Cell Lung
Excerpt: as §1

[32] = system: IGROV1; experiment: NCI 60-cell line growth inhibition assay, IGROV1; assay type: cell-based, human
Excerpt: as §1

[33] = system: OVCAR-8; experiment: NCI 60-cell line growth inhibition assay, OVCAR-8; assay type: cell-based, human; conditions: Ovarian
Excerpt: as §1

[34] = system: DU-145; experiment: NCI 60-cell line growth inhibition assay, DU-145; assay type: cell-based, human; conditions: Prostate
Excerpt: as §1

[35] = system: PC-3; experiment: NCI 60-cell line growth inhibition assay, PC-3; assay type: cell-based, human; conditions: Prostate
Excerpt: as §1

[36] = system: ACHN; experiment: NCI 60-cell line growth inhibition assay, ACHN; assay type: cell-based, human; conditions: Renal
Excerpt: as §1

[37] = system: RXF 393; experiment: NCI 60-cell line growth inhibition assay, RXF 393; assay type: cell-based, human; conditions: Renal
Excerpt: as §1

[38] = system: SN12C; experiment: NCI 60-cell line growth inhibition assay, SN12C; assay type: cell-based, human; conditions: Renal
Excerpt: as §1

[39] = system: TK-10; experiment: NCI 60-cell line growth inhibition assay, TK-10; assay type: cell-based, human; conditions: Renal
Excerpt: as §1

[40] = system: UO-31; experiment: NCI 60-cell line growth inhibition assay, UO-31; assay type: cell-based, human; conditions: Renal
Excerpt: as §1

## CCC1=C[C@H]2CN(C1)Cc1c([nH]c3ccc(I)cc13)[C@@](C(=O)OC)(c1cc3c(cc1OC)N(C)[C@H]1[C@@](O)(C(=O)OC)[C@H](OC(C)=O)C4C(CC)=CCN5CC[C@]31[C@H]45)C2 (stereo partly drawn) [Example 2, 11′-iodovinorelbine]
[1]; Homo sapiens, HeLa S3, 48 h
  GI50: 25 nM
[2]; Homo sapiens
  GI50: 19.2 nM
[3]; Homo sapiens
  GI50: 11.3 nM
[4]; Homo sapiens
  GI50: 77.2 nM
[5]; Homo sapiens
  GI50: 5280 nM
[6]; Homo sapiens
  GI50: 27 nM
[7]; Homo sapiens
  GI50: 37.9 nM
[8]; Homo sapiens
  GI50: 40.4 nM
[9]; Homo sapiens, U-251, CNS
  GI50: 42.3 nM
[10]; Homo sapiens
  GI50: 1070 nM
[11]; Homo sapiens, HT-29, Colon
  GI50: 10.3 nM
[12]; Homo sapiens
  GI50: 92.7 nM
[13]; Homo sapiens
  GI50: 37.8 nM
[14]; Homo sapiens
  GI50: 37.9 nM
[15]; Homo sapiens
  GI50: 71 nM
[16]; Homo sapiens, K562, Leukemia
  GI50: 12.4 nM
[17]; Homo sapiens, Leukemia
  GI50: 16.7 nM
[18]; Homo sapiens
  GI50: 26.1 nM
[19]; Homo sapiens
  GI50: 31.3 nM
[20]; Homo sapiens
  GI50: > 100000 nM
[21]; Homo sapiens
  GI50: 65 nM
[22]; Homo sapiens
  GI50: 1400 nM
[23]; Homo sapiens
  GI50: 3430 nM
[24]; Homo sapiens
  GI50: 25.6 nM
[25]; Homo sapiens
  GI50: 58.6 nM
[26]; Homo sapiens
  GI50: 37 nM
[27]; Homo sapiens
  GI50: 2250 nM
[28]; Homo sapiens
  GI50: 83.3 nM
[29]; Homo sapiens
  GI50: 52.8 nM
[30]; Homo sapiens
  GI50: 43.2 nM
[31]; Homo sapiens
  GI50: < 10 nM
[32]; Homo sapiens, IGROV-1, Ovarian
  GI50: 32.4 nM
[33]; Homo sapiens
  GI50: 51.7 nM
[34]; Homo sapiens
  GI50: 25.7 nM
[35]; Homo sapiens
  GI50: 57.3 nM
[36]; Homo sapiens
  GI50: 1430 nM
[37]; Homo sapiens
  GI50: 60.5 nM
[38]; Homo sapiens
  GI50: 70.8 nM
[39]; Homo sapiens
  GI50: 298 nM
[40]; Homo sapiens
  GI50: 674 nM

## 11′-bromovinorelbine [Example 1]
[1]
  GI50: 5 nM
[2]
  GI50: 679 nM
[3]
  GI50: < 10 nM
[4]
  GI50: < 10 nM
[5]
  GI50: 152 nM
[6]
  GI50: < 10 nM
[7]
  GI50: < 10 nM
[8]
  GI50: 15100 nM
[9]; CNS
  GI50: < 10 nM
[10]
  GI50: < 10 nM
[11]; Colon
  GI50: < 10 nM
[12]
  GI50: < 10 nM
[13]
  GI50: < 10 nM
[14]
  GI50: < 10 nM
[15]
  GI50: < 10 nM
[16]; Leukemia
  GI50: < 10 nM
[17]
  GI50: < 10 nM
[17]; Leukemia
  GI50: < 10 nM
[18]
  GI50: > 100000 nM
[19]
  GI50: < 10 nM
[20]
  GI50: < 10 nM
[21]
  GI50: 53.6 nM
[22]
  GI50: < 10 nM
[23]
  GI50: 5730 nM
[24]
  GI50: < 10 nM
[25]
  GI50: < 10 nM
[26]
  GI50: < 10 nM
[27]
  GI50: 1240 nM
[28]
  GI50: < 10 nM
[29]
  GI50: < 10 nM
[30]
  GI50: < 10 nM
[31]
  GI50: < 10 nM
[32]; Ovarian
  GI50: < 10 nM
[33]
  GI50: < 10 nM
[34]
  GI50: < 10 nM
[35]
  GI50: < 10 nM
[36]
  GI50: 3230 nM
[37]
  GI50: 10300 nM
[38]
  GI50: < 10 nM
[39]
  GI50: < 10 nM
[40]
  GI50: < 10 nM
